{"source": "patent US9834537B2", "about": "“Compounds as chloride channel blocking agent” (Korea Institute of Science and Technology, priority 2013, dated 2017)", "molecular_target": "calcium ion-activated chloride channel (Xenopus laevis, UniProt B5SVV6)", "sequence (B5SVV6 entry or part of it)": "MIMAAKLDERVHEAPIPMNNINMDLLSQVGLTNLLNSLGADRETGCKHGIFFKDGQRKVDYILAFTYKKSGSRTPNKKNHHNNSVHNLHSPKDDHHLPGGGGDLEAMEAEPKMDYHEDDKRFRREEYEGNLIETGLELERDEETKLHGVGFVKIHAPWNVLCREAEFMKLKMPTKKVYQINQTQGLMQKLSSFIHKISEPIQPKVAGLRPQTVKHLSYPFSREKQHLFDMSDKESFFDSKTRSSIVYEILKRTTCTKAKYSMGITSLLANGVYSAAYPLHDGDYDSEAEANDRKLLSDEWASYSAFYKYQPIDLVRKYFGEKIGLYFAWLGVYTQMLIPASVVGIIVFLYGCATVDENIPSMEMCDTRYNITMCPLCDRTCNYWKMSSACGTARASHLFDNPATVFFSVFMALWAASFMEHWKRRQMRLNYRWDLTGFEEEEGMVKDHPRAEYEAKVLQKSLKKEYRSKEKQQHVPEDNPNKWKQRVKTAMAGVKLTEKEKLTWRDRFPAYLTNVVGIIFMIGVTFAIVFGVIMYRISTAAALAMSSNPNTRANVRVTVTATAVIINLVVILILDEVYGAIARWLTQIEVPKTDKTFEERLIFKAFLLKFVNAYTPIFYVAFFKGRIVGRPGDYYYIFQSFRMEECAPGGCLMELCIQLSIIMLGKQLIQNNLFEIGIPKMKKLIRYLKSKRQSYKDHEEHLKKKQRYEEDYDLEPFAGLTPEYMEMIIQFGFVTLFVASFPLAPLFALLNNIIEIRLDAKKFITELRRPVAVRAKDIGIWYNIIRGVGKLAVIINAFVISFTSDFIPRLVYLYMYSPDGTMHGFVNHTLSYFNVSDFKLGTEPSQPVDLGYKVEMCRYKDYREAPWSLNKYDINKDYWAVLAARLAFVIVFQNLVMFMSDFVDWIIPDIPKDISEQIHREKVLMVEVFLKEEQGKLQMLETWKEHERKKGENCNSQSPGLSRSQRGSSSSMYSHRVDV", "experiment": "Patch clamp method: two-electrode voltage clamp recording on Xenopus laevis eggs, calcium-dependent chloride channel blocking activity", "format": "cell-based", "experimental": "Meanwhile, with regard to the novel compound represented by formula 1 according to the present invention, calcium-dependent chloride channel blocking activity was assessed by a patch clamp method according to the following experimental examples. Eggs of African Xenopus laevis were collected through surgical operation, immersed in a Barth's solution [88 mM NaCl, 1 mM KCl, 2.4 mM NaHCO3, 10 mM HEPES, 0.82 mM MgSO4, 0.33 mM Ca(NO3)2, 0.91 mM CaCl2 (all of which were purchased from Sigma Co.); 10 units/mL peniciline, and streptomycin (purchased from Gibco Co.)], and cultured in an incubator at a constant temperature of 18° C. Such prepared eggs were treated using 10 μM ionomycin (Sigma) for 30 minutes. A recording solution (96 mM NaCl, 2 mM KCl, 10 mM HEPES, 3 mM NaOH, 2 mM MgCl2, 0.5 mM EGTA, Sigma) was prepared and the eggs treated with ionomycin were rinsed using the prepared recording solution. Further, the eggs, after treating with 1 μM thapsigargin (Sigma) for 2 hours, were rinsed again using the recording solution to prepare eggs for recording. Next, an intracellular solution was prepared by adding 0.5 mM EGTA and 1 μM chelerythrine (Sigma) to 1 M KCl solution, then, charged in a glass micro-electrode. One of the prepared eggs was placed on a chamber and two micro-electrodes were stuck into both sides of the egg while dripping the recording solution over the egg. According to a protocol corresponding to purposes for experiments, two-electrode voltage clamp recording was executed to measure an electrical current.", "key": {"[1]": {"settings": "calcium ion-activated chloride channel, Xenopus laevis eggs, two-electrode voltage clamp"}, "[2]": {"settings": "Table 2 upper part, naphthyl compounds of formula 1b (scaffold drawing 37; * = position of naphthyl attachment)"}}}
{"compound": "O=C(O)c1cccc([N+](=O)[O-])c1Nc1ccc(Cl)c2ccccc12", "note": "[Compound No. 29, N-((4-chloro)naphthyl)-3-nitroanthranilic acid]", "values": [{"measurement": "IC50", "setting": "[1]", "value": 16.6, "unit": "µM"}]}
{"compound": "O=C(O)c1ccc([N+](=O)[O-])cc1Nc1cccc2ccccc12", "note": "[Compound No. 31, N-naphthyl-4-nitroanthranilic acid]", "values": [{"measurement": "IC50", "setting": "[1]", "value": 8.5, "unit": "µM"}]}
{"compound": "O=C(O)c1ccc([N+](=O)[O-])cc1Nc1ccc(Cl)c2ccccc12", "note": "[Compound No. 33, N-((4-chloro)naphthyl)-4-nitroanthranilic acid]", "values": [{"measurement": "IC50", "setting": "[2]", "value": 4.8, "unit": "µM"}, {"measurement": "IC50", "setting": "[1]", "value": 4.8, "unit": "µM"}]}
{"compound": "O=C(O)c1ccc([N+](=O)[O-])cc1Nc1ccc(Br)c2ccccc12", "note": "[Compound No. 34, N-((4-bromo)naphthyl)-4-nitroanthranilic acid]", "values": [{"measurement": "IC50", "setting": "[1]", "value": 10.1, "unit": "µM"}]}
{"compound": "O=C(O)c1ccc([N+](=O)[O-])cc1Nc1ccc([N+](=O)[O-])c2ccccc12", "note": "[Compound No. 35, N-((4-nitro)naphthyl)-4-nitroanthranilic acid]", "values": [{"measurement": "IC50", "setting": "[1]", "value": 21.6, "unit": "µM"}]}
{"compound": "COc1ccc(Nc2cc([N+](=O)[O-])ccc2C(=O)O)c2ccccc12", "note": "[Compound No. 36, N-((4-methoxy)naphthyl)-4-nitroanthranilic acid]", "values": [{"measurement": "IC50", "setting": "[2]", "value": 15.2, "unit": "µM"}, {"measurement": "IC50", "setting": "[1]", "value": 15.2, "unit": "µM"}]}
{"compound": "O=C(O)c1cc([N+](=O)[O-])ccc1Nc1cccc2ccccc12", "note": "[Compound No. 40, N-naphthyl-5-nitroanthranilic acid]", "values": [{"measurement": "IC50", "setting": "[2]", "value": 5, "unit": "µM"}, {"measurement": "IC50", "setting": "[1]", "value": 5, "unit": "µM"}]}
{"compound": "O=C(O)c1cc([N+](=O)[O-])ccc1Nc1ccc(F)c2ccccc12", "note": "[Compound No. 41, N-((4-fluoro)naphthyl)-5-nitroanthranilic acid]", "values": [{"measurement": "IC50", "setting": "[1]", "value": 3, "unit": "µM"}]}
{"compound": "O=C(O)c1cc([N+](=O)[O-])ccc1Nc1ccc(Cl)c2ccccc12", "note": "[Compound No. 42, N-((4-chloro)naphthyl)-5-nitroanthranilic acid]", "values": [{"measurement": "IC50", "setting": "[1]", "value": 8, "unit": "µM"}]}
{"compound": "O=C(O)c1cc([N+](=O)[O-])ccc1Nc1ccc(Br)c2ccccc12", "note": "[Compound No. 43, N-((4-bromo)naphthyl)-5-nitroanthranilic acid]", "values": [{"measurement": "IC50", "setting": "[2]", "value": 1.5, "unit": "µM"}, {"measurement": "IC50", "setting": "[1]", "value": 1.5, "unit": "µM"}]}
{"compound": "O=C(O)c1cc([N+](=O)[O-])ccc1Nc1ccc(I)c2ccccc12", "note": "[Compound No. 44, N-((4-iodo)naphthyl)-5-nitroanthranilic acid]", "values": [{"measurement": "IC50", "setting": "[1]", "value": 1.2, "unit": "µM"}]}
{"compound": "COc1ccc2ccccc2c1Nc1ccc([N+](=O)[O-])cc1C(=O)O", "note": "[Compound No. 45, N-((2-methoxy)naphthyl)-5-nitroanthranilic acid]", "values": [{"measurement": "IC50", "setting": "[2]", "value": 9.1, "unit": "µM"}, {"measurement": "IC50", "setting": "[1]", "value": 9.1, "unit": "µM"}]}
{"compound": "COc1cc(Nc2ccc([N+](=O)[O-])cc2C(=O)O)c2ccccc2c1", "note": "[Compound No. 46, N-((3-methoxy)naphthyl)-5-nitroanthranilic acid]", "values": [{"measurement": "IC50", "setting": "[2]", "value": 1.8, "unit": "µM"}, {"measurement": "IC50", "setting": "[1]", "value": 1.8, "unit": "µM"}]}
{"compound": "COc1ccc(Nc2ccc([N+](=O)[O-])cc2C(=O)O)c2ccccc12", "note": "[Compound No. 47, N-((4-methoxy)naphthyl)-5-nitroanthranilic acid]", "values": [{"measurement": "IC50", "setting": "[2]", "value": 2.27, "unit": "µM"}, {"measurement": "IC50", "setting": "[1]", "value": 2.27, "unit": "µM"}]}
{"compound": "COc1cccc2c(Nc3ccc([N+](=O)[O-])cc3C(=O)O)cccc12", "note": "[Compound No. 48, N-((5-methoxy)naphthyl)-5-nitroanthranilic acid]", "values": [{"measurement": "IC50", "setting": "[2]", "value": 9.2, "unit": "µM"}, {"measurement": "IC50", "setting": "[1]", "value": 9.2, "unit": "µM"}]}
{"compound": "COc1ccc2c(Nc3ccc([N+](=O)[O-])cc3C(=O)O)cccc2c1", "note": "[Compound No. 49, N-((6-methoxy)naphthyl)-5-nitroanthranilic acid]", "values": [{"measurement": "IC50", "setting": "[2]", "value": 1.14, "unit": "µM"}, {"measurement": "IC50", "setting": "[1]", "value": 1.14, "unit": "µM"}]}
{"compound": "COc1ccc2cccc(Nc3ccc([N+](=O)[O-])cc3C(=O)O)c2c1", "note": "[Compound No. 50, N-((7-methoxy)naphthyl)-5-nitroanthranilic acid]", "values": [{"measurement": "IC50", "setting": "[2]", "value": 3.4, "unit": "µM"}, {"measurement": "IC50", "setting": "[1]", "value": 3.4, "unit": "µM"}]}
{"compound": "COc1cccc2cccc(Nc3ccc([N+](=O)[O-])cc3C(=O)O)c12", "note": "[Compound No. 51, N-((8-methoxy)naphthyl)-5-nitroanthranilic acid]", "values": [{"measurement": "IC50", "setting": "[2]", "value": 8.6, "unit": "µM"}, {"measurement": "IC50", "setting": "[1]", "value": 8.6, "unit": "µM"}]}
{"compound": "O=C(O)c1ccc(C(F)(F)F)cc1Nc1ccc(Cl)c2ccccc12", "note": "[Compound No. 66, N-((4-chloro)naphthyl)-4-trifluoromethylanthranilic acid]", "values": [{"measurement": "IC50", "setting": "[1]", "value": 5.7, "unit": "µM"}]}
{"compound": "O=C(O)c1c(Nc2ccc(Br)c3ccccc23)cccc1[N+](=O)[O-]", "note": "[Compound No. 70, N-((4-bromo)naphthyl)-6-nitroanthranilic acid]", "values": [{"measurement": "IC50", "setting": "[1]", "value": 8.6, "unit": "µM"}]}
{"compound": "O=C(O)c1cc([N+](=O)[O-])ccc1Nc1ccccc1", "note": "[drawing 38 R1=5-NO2 R3=H, reference compound]", "values": [{"measurement": "IC50", "setting": "Table 2 lower part, comparison phenyl anthranilic acid compounds of Korean Patent Registration No. 892591 (scaffold drawing 38)", "value": 42.5, "unit": "µM"}]}
{"compound": "N-naphthyl-3-nitroanthranilic acid [Compound No. 28]", "values": [{"measurement": "IC50", "setting": "[1]", "value": 54, "unit": "µM"}]}
{"compound": "N-naphthyl-4-trifluoromethylanthranilic acid [Compound No. 65]", "values": [{"measurement": "IC50", "setting": "[1]", "value": 54, "unit": "µM"}]}
